Results from US10189809B2, “SGC stimulators” (Ironwood Pharmaceuticals, Inc., priority 2010, dated 2019).
Like-named read-outs stand apart in the source and are kept apart here.

Tests used:
[1] = biological target: soluble guanylate cyclase (sGC) (Homo sapiens (Human), UniProt Q02108+Q02153); experiment: sGC-HEK-cGMP assay run with SNP incubation (HEK WC assay); type: cell-based
How it was run: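 HEK293 cells with endogenous sGC were pretreated with 0.5 mM IBMX for 15 min at 37 °C, then exposed to test compound plus sodium nitroprusside for 10 min at 37 °C.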

[2] = biological target: T1, Human soluble guanylate cyclase enzyme (hsGC) (Homo sapiens (Human), UniProt Q02108+Q02153); experiment: Purified human sGC enzyme activity assay; type: biochemical; settings: for sGC Enzyme (specific activity at 10 μM) / sGC Enzyme (fold increase at 10 μM without SNP): 10 μM compound; for sGC Enzyme (specific activity at 30 μM) / sGC Enzyme (fold increase at 30 μM without SNP) / sGC Enzyme (fold increase at 30 μM): 30 μM compound; for sGC Enzyme (fold increase at 30 μM): without the addition of SNP
How it was run: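 Purified human sGC (5 ng) incubated 30 min at 37° C with compound at 10 or 30 μM final in pH 8.0 Tris with 300 μM GTP, 2 mM MgCl2, 2 mM DTT and 1 mM IBMX, then stopped with cold methanol. cGMP quantified against a standard curve. Specific activity (nmol cGMP/mg sGC/min) expressed as fold-change over DMSO control.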

[3] = biological target: T1, Human soluble guanylate cyclase enzyme (hsGC); experiment: Purified human sGC enzyme synergy assay in the presence of 1 μM sodium nitroprusside (SNP); type: biochemical; settings: for sGC Enzyme (fold increase at 10 μM with SNP): 10 μM compound; for sGC Enzyme (fold increase at 30 μM with SNP): 30 μM compound
How it was run: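 Purified human sGC (5 ng) incubated 30 min at 37 °C with compounds at 10 or 30 μM, 1 μM sodium nitroprusside, 300 μM GTP and 1 mM IBMX in Tris pH 8.0 with MgCl2/DTT. cGMP quantified against a standard curve, and specific activity expressed as fold-change over DMSO control.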

Thoracic aortic rings = experiment: Alternative thoracic aortic rings assay (Example 19b; resting tension as 100% inhibition); design: species or system rat; settings: Rattus norvegicus, Table 10A
How it was run: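 Aortic rings (~2 mm) from male Sprague-Dawley rats (275-299 g) held at 1.0 g resting tension in Krebs-Henseleit at 37 °C under 95% O2/5% CO2, then precontracted with 100 ng/mL phenylephrine. Compounds in DMSO added cumulatively; relaxation recorded by force transducer and EC50 taken from concentration-response curves.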

[4] = read-out: HEK WC Assay (% Emax at 10 uM/with 10 uM SNP)
[5] = read-out: HEK WC Assay (% Emax at 30 uM/with 10 uM SNP)
[6] = read-out: HEK WC Assay (% Emax at 10 μM/with 10 uM SNP)
[7] = read-out: HEK WC Assay (% Emax at 30 μM/with 10 uM SNP)

T1 sequence (Q02153 whole entry): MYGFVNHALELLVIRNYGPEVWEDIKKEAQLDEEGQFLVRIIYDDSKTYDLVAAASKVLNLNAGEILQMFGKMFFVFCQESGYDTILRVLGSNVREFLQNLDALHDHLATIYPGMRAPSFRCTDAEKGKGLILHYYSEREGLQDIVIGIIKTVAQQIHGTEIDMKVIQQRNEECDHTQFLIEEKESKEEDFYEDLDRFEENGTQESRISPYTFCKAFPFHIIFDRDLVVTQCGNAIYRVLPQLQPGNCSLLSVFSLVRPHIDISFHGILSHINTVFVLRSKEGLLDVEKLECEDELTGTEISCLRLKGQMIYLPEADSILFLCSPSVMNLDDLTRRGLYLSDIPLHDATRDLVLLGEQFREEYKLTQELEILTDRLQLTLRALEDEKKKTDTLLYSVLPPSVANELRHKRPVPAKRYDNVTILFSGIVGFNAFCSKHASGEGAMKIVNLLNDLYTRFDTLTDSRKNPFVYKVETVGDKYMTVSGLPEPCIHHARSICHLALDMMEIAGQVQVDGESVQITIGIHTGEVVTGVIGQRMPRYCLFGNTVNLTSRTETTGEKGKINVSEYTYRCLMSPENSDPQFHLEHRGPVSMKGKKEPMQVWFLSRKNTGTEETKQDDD
T1 sequence (Q02108 whole entry): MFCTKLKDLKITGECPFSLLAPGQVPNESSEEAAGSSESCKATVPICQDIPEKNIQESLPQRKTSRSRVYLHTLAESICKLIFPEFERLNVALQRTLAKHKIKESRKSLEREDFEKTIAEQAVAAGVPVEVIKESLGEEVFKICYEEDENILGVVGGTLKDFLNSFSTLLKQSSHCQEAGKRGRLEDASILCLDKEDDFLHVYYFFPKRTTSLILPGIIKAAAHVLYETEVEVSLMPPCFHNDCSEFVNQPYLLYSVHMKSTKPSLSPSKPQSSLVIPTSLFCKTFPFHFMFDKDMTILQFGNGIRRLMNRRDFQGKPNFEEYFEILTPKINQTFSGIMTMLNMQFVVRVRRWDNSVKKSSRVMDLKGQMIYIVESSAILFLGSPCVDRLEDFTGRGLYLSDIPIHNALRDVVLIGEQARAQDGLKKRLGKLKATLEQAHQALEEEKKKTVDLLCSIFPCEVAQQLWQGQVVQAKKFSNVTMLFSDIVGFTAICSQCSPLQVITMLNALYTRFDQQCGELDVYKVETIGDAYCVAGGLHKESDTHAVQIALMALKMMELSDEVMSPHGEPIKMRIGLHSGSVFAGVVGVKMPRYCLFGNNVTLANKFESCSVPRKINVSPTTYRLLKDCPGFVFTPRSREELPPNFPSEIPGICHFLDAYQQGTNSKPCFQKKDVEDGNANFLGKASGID
Sequence of soluble guanylate cyclase (sGC) (Q02153 whole entry): as the sequence (Q02153 whole entry) above
Sequence of soluble guanylate cyclase (sGC) (Q02108 whole entry): as the sequence (Q02108 whole entry) above

SMILES | Emax at 10 µM [1, 4] | Emax at 30 µM [1, 5] | sGC Enzyme (specific activity at 10 μM) [2] | sGC Enzyme (fold increase at 10 μM without SNP) [2] | sGC Enzyme (specific activity at 30 μM) [2] | sGC Enzyme (fold increase at 30 μM without SNP) [2] | sGC Enzyme (fold increase at 10 μM with SNP) ([3]; with 1 μM SNP) | sGC Enzyme (fold increase at 30 μM with SNP) ([3]; with 1 μM SNP) | Emax at 10 µM [1, 6] | Emax at 30 µM [1, 7] | sGC Enzyme (fold increase at 30 μM) [2] | sGC Enzyme (fold increase at 30 μM with SNP) ([3]; with the addition of SNP) | EC50 (Thoracic aortic rings; read-out: Aortic Ring EC50) | inhibition at 1 µM (Thoracic aortic rings; 1 μM, read-out: Percent Relaxation at 1 μM) | inhibition at 3 µM (Thoracic aortic rings; 3 μM, read-out: Percent Relaxation at 3 μM) | inhibition at 10 µM (Thoracic aortic rings; 10 μM, read-out: Percent Relaxation at 10 μM)
Nc1nc(-c2cc(-c3ccon3)n(Cc3ccccc3F)n2)ncc1C1CC1 [Compound I-104] |  |  |  |  |  |  |  |  | 40 to 60% | > 120% | B (B = 2 to <5 fold increase) | C (C = 5 to <10 fold increase) |  |  |  | 
Cl.Nc1cnc(-c2cc(-c3ccon3)n(Cc3ccccc3F)n2)nc1N [Compound I-107, 2-(1-(2-fluorobenzyl)-5-(isoxazol-3-yl)-1H-pyrazol-3-yl)pyrimidine-4,5-diamine hydrochloride] |  |  |  |  |  |  |  |  | 60 to 80% | 0 to 10% | B (B = 2 to <5 fold increase) | C (C = 5 to <10 fold increase) |  |  |  | 
Fc1ccccc1Cn1nc(-c2ccccn2)cc1-c1nnn[nH]1 [Compound I-43] | 0 to 10% | 0 to 10% | C (C = 100 to <200) | A (A = no increase to <2 fold increase) | C (C = 100 to <200) | A (A = no increase to <2 fold increase) | A (A = no increase to <2 fold increase) | A (A = no increase to <2 fold increase) |  |  |  |  |  |  |  | 
CC(C)(C)OC(=O)Nc1cnc(-c2cc(-c3ccon3)n(Cc3ccccc3F)n2)nc1N [Compound I-106] |  |  |  |  |  |  |  |  |  |  | D (D = 10 to <30 fold increase) | D (D = 10 to <30 fold increase) | < 2000 nM | 20 to 40% | 60 to 80% | 100 to 120%
Cn1c(=O)[nH]c2nc(-c3cc(-c4nccs4)n(Cc4ccccc4F)n3)nc(N)c21 [Compound I-96] |  |  |  |  |  |  |  |  | 20 to 40% | 20 to 40% | B (B = 2 to <5 fold increase) | C (C = 5 to <10 fold increase) |  |  |  | 
Fc1ccccc1Cn1nc(-c2ncccn2)cc1C1CC1 [Compound I-90] |  |  |  |  |  |  |  |  | 0 to 10% | 0 to 10% | A (A = no increase to <2 fold increase) | B (B = 2 to <5 fold increase) |  |  |  | 

Second part, led by results:

Emax at 10 µM [1, 4] | Emax at 30 µM [1, 5] | sGC Enzyme (specific activity at 10 μM) [2] | sGC Enzyme (fold increase at 10 μM without SNP) [2] | sGC Enzyme (specific activity at 30 μM) [2] | sGC Enzyme (fold increase at 30 μM without SNP) [2] | sGC Enzyme (fold increase at 10 μM with SNP) ([3]; with 1 μM SNP) | sGC Enzyme (fold increase at 30 μM with SNP) ([3]; with 1 μM SNP) | Emax at 10 µM [1, 6] | Emax at 30 µM [1, 7] | sGC Enzyme (fold increase at 30 μM) [2] | sGC Enzyme (fold increase at 30 μM with SNP) ([3]; with the addition of SNP) | EC50 (Thoracic aortic rings; read-out: Aortic Ring EC50) | SMILES | inhibition at 1 µM (Thoracic aortic rings; 1 μM, read-out: Percent Relaxation at 1 μM) | inhibition at 3 µM (Thoracic aortic rings; 3 μM, read-out: Percent Relaxation at 3 μM) | inhibition at 10 µM (Thoracic aortic rings; 10 μM, read-out: Percent Relaxation at 10 μM)
0 to 10% | 0 to 10% | C (C = 100 to <200) | B (B = 2 to <5 fold increase) | D (D = 200 to <500) | B (B = 2 to <5 fold increase) | B (B = 2 to <5 fold increase) | B (B = 2 to <5 fold increase) |  |  |  |  |  | Cc1ccc(-c2cc(-c3ccccn3)nn2Cc2ccccc2F)cc1 [Compound I-23] |  |  | 
0 to 10% | 0 to 10% | C (C = 100 to <200) | A (A = no increase to <2 fold increase) | C (C = 100 to <200) | A (A = no increase to <2 fold increase) | A (A = no increase to <2 fold increase) | B (B = 2 to <5 fold increase) |  |  |  |  |  | COc1ccc(-c2cc(-c3ccccn3)nn2Cc2ccccc2F)cc1 [Compound I-40] |  |  | 
0 to 10% | 0 to 10% |  | A (A = no increase to <2 fold increase) |  | A (A = no increase to <2 fold increase) | A (A = no increase to <2 fold increase) | A (A = no increase to <2 fold increase) |  |  |  |  |  | Fc1ccccc1Cn1nc(-c2ccccn2)cc1-c1ccc(Br)cn1 [Compound I-51, 5-bromo-2-(1-(2-fluorobenzyl)-3-(pyridin-2-yl)-1H-pyrazol-5-yl)pyridine] |  |  | 
0 to 10% | 0 to 10% | B (B = 50 to <100) | A (A = no increase to <2 fold increase) | C (C = 100 to <200) | B (B = 2 to <5 fold increase) | A (A = no increase to <2 fold increase) | A (A = no increase to <2 fold increase) |  |  |  |  |  | COc1ccc(-c2cc(-c3ncccn3)nn2Cc2ccccc2F)cc1 [Compound I-60] |  |  | 
0 to 10% | 0 to 10% | D (D = 200 to <500) | A (A = no increase to <2 fold increase) | D (D = 200 to <500) | B (B = 2 to <5 fold increase) | B (B = 2 to <5 fold increase) | B (B = 2 to <5 fold increase) |  |  |  |  |  | CC(C)c1cc(-c2ccccn2)nn1Cc1ccccc1F [Compound I-47] |  |  | 
